Test results: PubChem BioAssay AID1645864 (Buhrlage Lab, Dana-Farber Cancer Institute and Novartis …, 2021)
pIC50: −log10 of the molar value. Activity calls are given as the source filed them.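 Rule for the calls: active = maximal inhibition of USP17 at or above 30% in the confirmation dose-response, a value not among the printed readouts; inactive = the rest.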

Molecular target: Ubiquitin carboxyl-terminal hydrolase 17-like protein 5 (Homo sapiens) (UniProt A8MUK1)
Test: ubiquitin-specific protease 17 inhibitors, concentration series, biochemical, verification of primary actives (AID 1645864)
Settings: purified USP17, ubiquitin-rhodamine cleavage fluorescence, 3 h

Chain of Ubiquitin carboxyl-terminal hydrolase 17-like protein 5 (Homo sapiens) (A8MUK1 whole entry, looked up): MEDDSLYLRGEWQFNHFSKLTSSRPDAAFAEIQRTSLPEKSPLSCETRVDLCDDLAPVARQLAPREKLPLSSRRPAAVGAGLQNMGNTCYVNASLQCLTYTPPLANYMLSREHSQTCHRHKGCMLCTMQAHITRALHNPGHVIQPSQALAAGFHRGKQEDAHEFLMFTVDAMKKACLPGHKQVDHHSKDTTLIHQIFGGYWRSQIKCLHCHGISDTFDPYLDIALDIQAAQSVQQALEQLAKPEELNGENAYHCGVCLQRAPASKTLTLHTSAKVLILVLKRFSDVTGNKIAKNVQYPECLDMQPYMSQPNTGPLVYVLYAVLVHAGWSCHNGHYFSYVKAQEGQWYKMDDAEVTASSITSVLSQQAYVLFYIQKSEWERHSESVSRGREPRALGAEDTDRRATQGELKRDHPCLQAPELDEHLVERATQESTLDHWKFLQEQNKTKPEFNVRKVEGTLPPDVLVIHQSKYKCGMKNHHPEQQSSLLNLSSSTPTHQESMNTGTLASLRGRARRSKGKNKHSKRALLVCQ

SMILES	pIC50	IC50
CC(C)=CCC/C(C)=C/Cc1c(O)cc2c(c1O)C(=O)OC2	5.77	–
O=C(NCc1ccc(Br)cc1)c1ccc(-c2cccnc2)nc1	4.43	–
Cc1nn(-c2cc(N3CCOCC3)ncn2)c(C)c1CCC(=O)Nc1ccc(C(C)C)cc1	4.54	–
COc1ccc(CC(NC(C)=O)C(=O)NC2CCN(c3c(Cc4ccccc4)c(C)nc4ncnn34)CC2)cc1OC (stereo unspecified)	–	> 50 µM (inactive)
NS(=O)(=O)c1ccc(NC(=O)Cn2cnc3cc([N+](=O)[O-])ccc3c2=O)cc1	4.74	–
O=C(Nc1ccc(F)c(Cl)c1)c1ccc(N2CCCCS2(=O)=O)cc1Cl	–	> 50 µM (inactive)
COc1ncccc1CN1CCn2c(Cn3cccn3)cnc2C1C (stereo unspecified)	–	> 50 µM (inactive)
COc1cccc(OCCCn2c(C(C)NC(=O)c3ccco3)nc3ccccc32)c1 (stereo unspecified)	4.48	–
Cc1ccc2c(c1)N(Cc1nc(-c3ccc(F)cc3)no1)C(=O)CO2	–	> 50 µM (inactive)
COC(=O)COc1ccc(/C=N/NC(=O)c2ccc(CN3CCc4ccccc4C3)cc2)cc1	4.84	–
COc1ccccc1NS(=O)(=O)c1cccc(NC(=O)CCc2nc3ccccc3s2)c1	5.39	–
Cc1sc(NC(=O)/C=C/c2ccco2)nc1-c1ccccc1	–	> 50 µM (inactive)
O=c1c(Nc2cccc(F)c2)nc2ccncc2n1Cc1ccccc1	4.90	–
CC1=C[C@@H](C)CC[C@H]2O[C@@H](C3=C(O)C(=O)C(C)=C4O[C@](O)(C=C43)[C@@H](C)C[C@H](C)C1)[C@H](C)[C@@H](O)[C@H]2C	4.79	–
COc1cccc(C(=O)Nc2ccc(-n3cnnn3)cc2)c1	–	> 50 µM (inactive)
Cc1nc2nc(SCc3nc4ccccc4n3C)[nH]c2cc1Br	5.45	–
Cc1ccccc1C(=O)NCCn1cc(SCC(=O)Nc2ccc3c(c2)OCCO3)c2ccccc21	–	> 50 µM (inactive)
O=C(Cn1cnc(-c2noc(-c3ccncc3)n2)c1)N1CCN(c2ccccc2F)CC1	–	> 50 µM (inactive)
Cc1ccc(C(=O)NCc2ccc(C(=O)Nc3cccc(C)c3)o2)cc1	4.49	–
CCn1c(SCC(=O)c2c(N)n(CC(C)C)c(=O)n(C)c2=O)nnc1-c1ccccc1	4.80	–
CSc1nccc(-c2ccc(F)cc2)c1C#N	4.68	–
Cc1c(CC(=O)N2CCN(c3ncccn3)CC2)c(=O)oc2cc(O)ccc12	4.61	–
CCC(=O)Nc1nc2cc(NC(=O)Nc3cc(C)cc(C)c3)ccc2s1	5.49	–
Cn1cccc1C(=O)N1CCCC2(C1)Nc1cccnc1NC2=NC1CCCC1 (stereo unspecified)	–	> 50 µM (inactive)
CCCC[C@@H](C)/C=C(C)/C=C(\C)C(=O)NC1=C[C@](O)(/C=C/C=C/C=C/C(=O)NC2=C(O)CCC2=O)[C@@H]2O[C@@H]2C1=O	5.51	–
Cc1ccc2c(=O)c(C(=O)Nc3ccccc3)cn(CC(=O)NC3CCCCC3)c2n1	> 7.30	–

SMILES	pIC50	IC50
Nc1ccccc1SC(CC(=O)c1ccc(Cl)cc1)c1ccsc1 (stereo unspecified)	–	> 50 µM (inactive)
Cc1cc2nc(-c3ccc(SCc4ccccn4)nc3)[nH]c2cc1C	4.51	–
Cn1c(SCc2ccccc2)nnc1-c1csc(-c2ccccc2)n1	4.41	–
O=C(CCCn1c(=O)c2ccccc2n(CC(=O)NCc2ccccc2Cl)c1=O)NCc1ccc2c(c1)OCO2	5.66	–
O=C(CSc1nc2ccncc2[nH]1)Nc1ccc(Br)cc1F	4.42	–
COc1ccc(CCNC(=O)CCCn2c(=O)c3ccccc3n(CC(=O)OCc3ccccc3)c2=O)cc1OC	4.64	–
C=Cc1ccc(Cn2cc(S(=O)(=O)N3CCOCC3)ccc2=O)cc1	4.39	–
Cn1nccc1C(=O)N1CCCCC1c1ncc(Cc2ccc(Cl)cc2)o1 (stereo unspecified)	–	> 50 µM (inactive)
O=C(COc1ccc(Cl)cc1Cl)Nc1ccc2[nH]c(=O)[nH]c2c1	5.13	–
COc1ccc(NS(=O)(=O)c2ccc(NC(=O)Nc3ccc(Cl)cc3)cc2)cc1	4.62	–
COc1ccc(C(=O)NCC(c2ccc3c(c2)CCCN3C)N2CCCC2)cc1 (stereo unspecified)	–	> 50 µM (inactive)
COc1ccc(NC(=O)c2[nH]nc3c2COc2ccccc2-3)c(OC)c1	5.26	–
O=C(Cc1c[nH]c2ccccc12)Nc1nc2ccccc2s1	–	> 50 µM (inactive)
O=C(Nc1ccc(N2CCOCC2)cc1)c1cc(=O)[nH]c2ccccc12	4.51	–
COc1ccc(NC(=O)c2ccc(-n3nnnc3SC)cc2)cc1Cl	–	> 50 µM (inactive)
Cc1cc(/C=C2/C(=N)N3C(c4ccccc4)=CSC3=NC2=O)c(C)n1-c1ccc2ccccc2c1	–	> 50 µM (inactive)
N#Cc1ccc(Cn2nnc(-c3cccc(Cl)c3)n2)cc1	–	> 50 µM (inactive)
CCN(CC)c1nc(F)c2c(c1F)S(=O)(=O)CCN2Cc1cccnc1	–	> 50 µM (inactive)
CCCc1nc2sc3c(NCCCN4CCOCC4)ncnc3c2c2c1CCC2	–	> 50 µM (inactive)
CC(=O)N1CCc2cc(S(=O)(=O)NC(Cc3ccccc3)C(=O)Nc3cccc(Cl)c3C)ccc21 (stereo unspecified)	4.89	–
CNC(=O)c1cc2nc(N(C)C)n(-c3ccc(F)cc3)c2s1	–	> 50 µM (inactive)
Cc1nn(Cc2ccccc2)c(C)c1C(=O)NC1CCCc2ccccc21 (stereo unspecified)	–	> 50 µM (inactive)
Cc1ccc2[nH]c3c(=O)n(CC4CCCO4)cnc3c2c1 (stereo unspecified)	4.67	–
Cc1cccc(NC(=O)CSc2nnc(-c3n[nH]c4c3CCC4)n2N)c1	4.46	–
CCN(CC)C(=O)CN1CCCC(c2ncncc2-c2cc(C)no2)C1 (stereo unspecified)	–	> 50 µM (inactive)
N#Cc1ccc(COC(=O)c2ccc3ccccc3n2)cc1	–	> 50 µM (inactive)

SMILES	pIC50	IC50
Cc1sc(-c2cccnc2)nc1OC(=O)c1ccc(Cl)c(Cl)c1	–	> 50 µM (inactive)
CSc1cccc(C(=O)Nc2ccc(-c3nc4ccccc4[nH]3)cc2)c1	5.02	–
Cc1nc2cc(C(=O)NCCC3=CCCCC3)ccc2n1-c1cccc(F)c1	–	> 50 µM (inactive)
O=c1oc2ccccc2c2nn(-c3ccccn3)cc12	4.32	–
O=C1C=CC(O)C2C1CC13SSC4(CC5C(=O)C=CC(O)C5N4C1=O)C(=O)N23 (stereo unspecified)	–	> 50 µM (inactive)
O=C1Oc2nc3ccccc3cc2CN1Cc1ccco1	4.62	–
CCCCNc1nc2c(-c3ccccc3)nnn2c2ccccc12	5.51	–
CC(C)N1C[C@@H]2C[C@H](NS(=O)(=O)c3cccc(C#N)c3)CN2Cc2ccccc21	–	> 50 µM (inactive)
COc1c2c(cc3cc(O)c4c(=O)cc(C)oc4c13)CCC2=O	4.47	–
c1ccc2c(c1)ccc1nnc(-c3ccc4c(c3)OCO4)n12	–	> 50 µM (inactive)
O=C(CSc1nc2cc(S(=O)(=O)Nc3ccccc3Cl)ccc2o1)Nc1ccc(N2CCOCC2)cc1	4.32	–
Cc1ccc(Nc2nc(C(=O)NCc3ccc4c(c3)OCO4)cc3occc23)cc1Cl	4.55	–
Nc1nc(OCc2ccccc2)c2[nH]c(/C=C/c3cccs3)nc2n1	4.49	–
CC(C)(C)c1ccc(C(=O)Nc2ccc(Oc3cccnc3)nc2)cc1	–	> 50 µM (inactive)
O=C1COc2ccc(NC(=O)c3cnn(Cc4ccccc4)c3)cc2N1	4.40	–
Cc1ccc2c(c1C)NC(=O)[C@]21[C@@H]2C(=O)N(c3cc(Cl)ccc3Cl)C(=O)[C@@H]2[C@@H]2CCCN21	–	> 50 µM (inactive)
CC(=O)Nc1ccc(S(=O)(=O)NCc2ccc(C(=O)NCc3ccc(C)cc3)cc2)cc1	4.55	–
CC(C)CC(=O)Nc1cc(F)c2nc(N3CCOCC3)ccc2c1	5.23	–
Cc1cc(C(=O)N2CC(C(=O)Nc3cc(C(F)(F)F)ccc3Cl)C2)no1	4.42	–
O=S(=O)(Cc1nnc(-c2ccccc2C(F)(F)F)o1)c1ccc(Cl)cc1	–	> 50 µM (inactive)
CCc1nnc(NC(=O)c2nnn(-c3ccccc3Cl)c2C)s1	–	> 50 µM (inactive)
c1ccc(-c2ccc(NCc3ccc4c(c3)OCO4)nn2)cc1	5.13	–
Cc1ccc(OCCn2c(=N)n(C(C)C)c3ccccc32)cc1	–	> 50 µM (inactive)
Cn1c2ccccc2c(=O)c2c(=O)n(Cc3ccccc3)c(-c3ccccc3F)nc21	6.90	–
COc1ccc(C(=O)Nc2cc(-c3ccccn3)no2)cn1	–	> 50 µM (inactive)
COc1cccc(CN2CCc3nc4nc(C)ccc4cc3C2)c1	–	> 50 µM (inactive)

SMILES	pIC50	IC50
O=C(CNC(=O)c1cc2ccccc2[nH]1)Nc1ccc2c(c1)OCCO2	4.47	–
COc1ccc(CNC(=O)CSc2nc3nc(C)ccc3o2)cc1	4.60	–
COc1ccc2[nH]cc(S(=O)(=O)c3ccc(C)c(F)c3)c(=O)c2c1	4.32	–
Cc1oc(-c2ccc(C(=O)NCC3COCCO3)cc2)nc1CN1CCc2ccccc21 (stereo unspecified)	–	> 50 µM (inactive)
CC(C)c1cc2c(c(O)c1O)[C@@]13CCCC(C)(C)[C@@H]1C[C@@H]2OC3=O	4.71	–
CC(C)(C)c1ccc(C(=O)Nc2ccc(Cn3cncn3)cc2)cc1	–	> 50 µM (inactive)
CN1CC2CN(C(=O)Nc3cccnc3)CCN2Cc2ccccc21 (stereo unspecified)	–	> 50 µM (inactive)
COc1ccc2ncc3c(-c4ccc(C)cc4)nn(-c4ccc(F)cc4)c3c2c1	5.45	–
CCc1ccc(C2c3c(oc4ccccc4c3=O)C(=O)N2c2nncs2)cc1 (stereo unspecified)	–	> 50 µM (inactive)
COc1cccc(S(=O)(=O)N2CCn3nc(C(C)(C)C)cc3C2)c1	4.41	–
Cc1c(C)c2ccc(OCC(=O)NCc3ccncc3)c(C)c2oc1=O	4.38	–
O=S(c1ccc2ccccc2c1)c1cnns1 (stereo unspecified)	–	> 50 µM (inactive)
CCOc1ccccc1C(=O)Nc1ccc2c(c1)Sc1ncccc1C(=O)N2C	–	> 50 µM (inactive)
COc1cccc(-c2cc(C(=O)Nc3cc(C)n(Cc4ccc(Cl)cc4)n3)no2)c1	5.33	–
FC(F)(F)c1ccccc1CCN1CCc2nc3ccc(Cl)cc3cc2C1	–	> 50 µM (inactive)
COc1ccc(CN=C2NS(=O)(=O)C(c3ccc(F)cc3)=C2C)cc1OC	4.73	–
COc1ccc(C2SCC(=O)Nc3c2c(=O)[nH]n3C2CCCCCC2)cc1 (stereo unspecified)	4.47	–
C=C1CCC2[C@](C)(CCC[C@]2(C)C(=O)OC)[C@H]1CCc1ccoc1CNC(C)C (stereo partly specified)	–	> 50 µM (inactive)
O=C(CN1C=NC2=NS(=O)(=O)c3ccccc3N21)Nc1cc(F)ccc1F	4.48	–
NC(=O)Cn1c(=O)n(Cc2ccc(C(=O)NC3CCCC3)cc2)c(=O)c2ccccc21	–	> 50 µM (inactive)
N#Cc1ccccc1Cn1c(=O)n(CCCCC(=O)NCCc2ccccc2)c(=O)c2ccccc21	5.00	–
Cc1ccccc1NC(=O)c1nc(-c2cn(Cc3ccc(F)cc3)nn2)no1	5.07	–
O=C(Nc1cccc(OC(=O)c2ccc(Cl)cc2)c1)c1ccc(Cl)cc1	4.78	–
